Peptide text beside a SMILES is read from it. * marks the point of attachment. Palmitoyl = CCCCCCCCCCCCCCCC(=O)*
Experiments:
J774.2 macrophages = experiment: Cellular uptake and localization of ApoA1-Ac2-26 PA; format: cell-based, mouse
Method: Cellular uptake and localization of ApoA1-Ac2-26 PA: PAs containing 40 mol % ApoA1 PA, 10 mol % MMP-Ac2-26 or ROS-Ac2-26 PA, 45.5 mol % E2 filler PA, and 4.5 mol % E2 filler PA with AF546 were co-assembled as described above and aged at least 1 week in PBS at 4° C. to promote nanofiber formation. Macrophages were seeded onto 6-channel μ-Slide VI 0.4 (ibidi) at 2.1×10^5 cells/cm^2 and allowed to adhere for 24 hours before adding 0.33 μM 10% MMP- or ROS-Ac2-26 PA and incubated at 37° C. for 1 or 24 hours. At each time point, the samples were fixed with 4% paraformaldehyde for 10 minutes, followed by permeabilization with 0.125% Triton-X for 10 minutes. The samples were rinsed twice with PBS and incubated with blocking buffer consisting of 2% w/v BSA for one hour at room temperature before incubating with 20 μg/mL LAMP1 antibody (rabbit polyclonal, abcam) for 12-18 hours at 4° C. The samples were rinsed twice with PBS containing 0.01% Tween-20 at one hour per rinse followed by an hour rinse with PBS before adding 2 μg/mL donkey anti-rabbit Alexa Fluor Plus 647 (Highly cross-adsorbed secondary antibody, Invitrogen) for 12-18 hours at 4° C. The samples were rinsed twice with PBS before adding 5 μg/mL 4′,6-Diamidino-2-Phenylindole (DAPI, ThermoFisher Scientific) and phalloidin (1:1000 dilution, CruzFluor™ 488 conjugate, Santa Cruz Biotechnology) for one hour at room temperature. Samples were rinsed and stored in PBS until image analysis. Microscopy was performed using Zeiss 880 confocal microscopy at 63× magnification with numerical aperture of 1.4. Lasers at 405, 488, 561, and 633 nm were used to collect images through Multi Channel acquisition, which uses a separate scan for each channel to avoid spectral overlap. 3D images were created using z-stacks with 9-14 μm thick sections compiled from 0.22 μm slices using a line step of 1, speed of 8, and image size of 1024×1024 pixels at 16 bit depth. To examine colocalization of PAs to endosomes/lysosomes, Manders coefficient calculations using the Coloc 2 plugin from Fiji were used.

[1] = TEM characterization of PA nanofibers for diameter and length (Example 3); format: physicochemical; details: 30 measurements from three images
Method: Samples at 1 mM in PBS were prepared for TEM by plating on copper supports covered with thin carbon foil 400-mesh that were treated with glow discharge. […] Due to the overlapping fibers, automated tools including FiberApp could not be used to analyze the nanofibers. Instead, the TEM images were analyzed manually for nanofiber diameter and length using ImageJ software. Cryogenic TEM of samples was also performed using a JEOL 1230 at 100 kV accelerating voltage and Gatan 831 CCD camera. […] Samples were prepared at 1 mM in PBS blotted once for 3 seconds before plunging into liquid ethane using a Vitrobot Mark III (FEI) vitrification robot.

[2] = tested on: atherosclerotic LDLR KO mice; experiment: In vivo proof of concept: PA nanofiber localization in aortic root; parameters: species or system mouse; details: 24 h after intravenous injection, high fat diet 14 weeks, 6 mg kg-1 PA
Method: Mouse Model of Atherosclerosis and In Vivo Proof of Concept: LDLR-KO mice were fed a high fat “Western” diet (Teklad TD.88137) starting at 4 weeks of age. This diet consisted of 20% fat, 0.2% cholesterol, and 34% high sucrose. LDLR-KO mice fed this diet typically develop severe hypercholesterolemia (>800 mg/dL) and hypertriglyceridemia (>300 mg/dL) after only 2 weeks, and by 12 weeks on the high fat diet, atherosclerotic lesions are detected in the aortic root and aortic arch. After 14 weeks on the high fat diet, mice received intravenous injections of PA nanofibers dissolved in PBS (dorsal penile vein in males) under sterile conditions. Mice were briefly anesthetized for injection with inhaled isoflurane. After injection, mice were monitored and allowed to recover from anesthesia in a heated oxygen chamber. […] PA fluorescence was assessed with the HE CY3 filter (Zeiss filter #43) using excitation and emission wavelengths of 550-575 nm and 605-670 nm, respectively. Nuclear staining was performed with DAPI (4′,6-Diamidino-2-Phenylindole, Dilactate, ThermoFisher, Chicago, IL), and assessed with the DAPI filter (Zeiss filter #49) using excitation and emission wavelengths of 365-395 and 445-450 nm, respectively. Tissue autofluorescence was assessed with the green fluorescent protein filter (Zeiss filter #38) using excitation and emission wavelengths of 470-495 and 525-550 nm, respectively. […]

Compound	average Manders coefficient, LAMP1 to PA colocalization (J774.2 macrophages; 24 hours of treatment)	average Manders coefficient, PA to LAMP1 colocalization (J774.2 macrophages; 24 hours of treatment)	cellular retention of PAs (J774.2 macrophages; confocal microscopy)	Diameter (nm) Average [1] [nm]	Diameter (nm) Median [1] [nm]	Length (nm) Average [1] [nm]	Length (nm) Median [1] [nm]	Diameter (nm) Average ([1]; listed as ApoA1) [nm]	Length (nm) Median ([1]; listed as ApoA1) [nm]	localization of nanofibers to areas of atherosclerotic plaque in the aortic root [2]
10% MMP-Ac2-26 PA: co-assembly of 10 mol % MMP-Ac2-26 PA, 50 mol % E2 filler PA, and 40% ApoA1 PA (VVAAEEGGGPQGIWGQGKAMVSEFLKQAWFIENEEQEYVQTVK)	0.79	0.48	found in the extracellular space							
CCCCCCCCCCCCCCCC(=O)N[C@H](C(=O)N[C@H](C(=O)N[C@@H](C)C(=O)N[C@@H](C)C(=O)N[C@@H](CCC(=O)O)C(=O)N[C@@H](CCC(=O)O)C(=O)NCC(=O)N[C@@H](CC(=O)O)C(=O)N[C@@H](Cc1c[nH]c2ccccc12)C(=O)N[C@@H](Cc1ccccc1)C(=O)N[C@@H](CCCCN)C(=O)N[C@@H](C)C(=O)N[C@@H](Cc1ccccc1)C(=O)N[C@@H](Cc1ccc(O)cc1)C(=O)N[C@@H](CC(=O)O)C(=O)N[C@@H](CCCCN)C(=O)N[C@H](C(=O)N[C@@H](C)C(=O)N[C@@H](CCC(=O)O)C(=O)N[C@@H](CCCCN)C(=O)N[C@@H](Cc1ccccc1)C(=O)N[C@@H](CCCCN)C(=O)N[C@@H](CCC(=O)O)C(=O)N[C@@H](C)C(=O)N[C@@H](Cc1ccccc1)C(N)=O)C(C)C)C(C)C)C(C)C [ApoA1 PA] (Palmitoyl-VVAAEEGDWFKAFYDKVAEKFKEAF-NH2)				9.6	9.5	626.9	615.9	9.6±1.7	616	localization of the nanofibers to areas of atherosclerotic plaque

Reference: patent US12214076B2, “Drug delivery vehicles for atherosclerosis nanomedicine” (Northwestern University, priority 2019, dated 2025)
